A short description of this data set: gradient 5% acetonitrile 3 min, to 50% in 2 min, to 85% in 15 min, held 3 min, 100 µL/min. The following applies: column: Zorbax Extend-C18 2.1 x 50 mm; eluents: water / acetonitrile, 0.1% formic acid. The gist of the method: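 The system's dead and dwell volumes were 40 μL and 900 μL, with a Zorbax Extend-C18 column (2.1 × 50 mm, 1.8 μm) run at 100 μL/min in water and acetonitrile containing 0.1% formic acid each. Pure standards were analyzed in mixtures of ~100 molecules by HPLC–quadrupole time-of-flight mass spectrometry in positive and negative ionization mode. Retention time was assigned from computationally picked, manually inspected adduct peaks.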
`COCCNS(=O)(=O)c1cccc(-c2nnc(-c3ccc(C)cc3)o2)c1` yielded an RP-LC retention time of 880 s.
The same measure for `Fc1ccc(OCc2nnc3sc(-c4cccc(F)c4)nn23)cc1`: 947 s; for `Cc1ccc(C)c(N2CCN(C(=O)c3cnc4ncnn4c3C)CC2)c1`: 829 s.
With `Cc1[nH]c(=O)[nH]c(=O)c1CCc1nnc(SCC(=O)c2ccc3c(c2)NC(=O)CO3)o1`, the RP-LC retention time came to 589 s.
For `COC(=O)c1cccc(Nc2c(-c3cccc(O)c3)nc3cnccn23)c1`, the RP-LC retention time came to 696 s.
For `O=C(Cn1nc2c3ccc(F)cc3ncn2c1=O)Nc1ccccc1Cl`, the RP-LC retention time is 725 s.
`COCCNC(=O)C1c2ccccc2CC(=O)N1C(C)C` (stereo not given) came in with an RP-LC retention time of 648 s.
Then `COc1ccc(OC)c(S(=O)(=O)N2CCn3c(nn(CC4CC4)c3=O)C2)c1`, with 734 s; and `O=C(C1CC1)N1CCc2sc(S(=O)(=O)Nc3cc(Cl)ccc3F)cc2C1`, with 868 s; and `Cc1ccc(NC(=O)CC2COc3ccccc3NC2=O)cc1C` (stereo not given), with 687 s.
The same measure for `Cc1csc(-c2cc(S(=O)(=O)Nc3ccc(Cl)cc3)cn2CC(=O)N2CCCC2)n1`: 947 s; for `Cc1cccc(N2CCN(C(=O)c3csc(C(=O)NC4CC4)n3)CC2)c1`: 809 s; for `O=C(Nc1ccccn1)C1CCN(S(=O)(=O)c2ccc(-c3noc(C4CC4)n3)cc2)CC1`: 843 s.
Then `CCc1noc(-c2nc(-c3ccc(OC)cc3)no2)n1`, with 986 s; and `CCN1CCN(c2nc3c(c(Nc4ccccc4)n2)C(=O)CCC3)CC1`, with 1040 s.
Molecule `CC(C)C(=O)N1CCC2(C1)c1nc[nH]c1CCN2CC1CCCCC1` (stereo not given) yielded an RP-LC retention time of 608 s.
The same measure for `CSc1ccc(-c2nc3ccc(Cl)cn3c2NC2CCCCC2)cc1`: 926 s; for `COc1cc(C)c(Cl)cc1S(=O)(=O)N1CCN(C(=O)c2ccco2)CC1`: 797 s; for `CCCNC(=O)C1CCN(c2ccc(SCC(=O)Nc3cc(F)ccc3C)nn2)CC1`: 667 s.
For `CCCCOc1ccc(-c2cc3c4nnc(CCC(=O)N5CCN(C(C)C)CC5)n4ccn3n2)cc1`, the RP-LC retention time worked out at 692 s.
Take `COc1ccccc1N1CCN(S(=O)(=O)c2cc(-c3nnc(C4CCC4)o3)co2)CC1`: the RP-LC retention time came out at 1020 s.
Molecule `COC(=O)C1=CN(c2cc(Cl)c(OC)cc2OC)c2cc(F)ccc2S1(=O)=O` yielded an RP-LC retention time of 918 s.
For the molecule `CN1C(=O)C2CCCCN2c2ccc(C(=O)NCCCN3CCN(C4CCCCC4)CC3)cc21` (stereo not given), the RP-LC retention time is 594 s.
The molecule `O=C(CCc1nc(-c2ccc(N3CCCCCC3)cc2)no1)N1CCCC1` showed an RP-LC retention time of 1080 s.
Regarding `Cc1ccc(-c2cn3c(n2)N(C(=O)c2cnccn2)CCC3)cc1`, the RP-LC retention time came to 642 s.
Regarding `COc1ccc(NC(=O)N(Cc2nnc3n2CCCCC3)c2cccc(OC)c2)cc1`, the RP-LC retention time was found to be 700 s.
Molecule `COC(=O)Cn1c(=O)c2c(nc3n2CCCN3c2ccc(Cl)cc2)n(C)c1=O` had an RP-LC retention time of 868 s.
The same measure for `O=c1c2cc3c(cc2nc(SCc2nc(-c4ccc(F)cc4)no2)n1Cc1ccccc1)OCO3`: 1200 s.
In the case of `COCCC(=O)NCCC1CCN(C(=O)Nc2cc(F)ccc2F)CC1`, the RP-LC retention time was 675 s.
The same measure for `Cc1nc(-c2csc(S(=O)(=O)N3CCCC(C(=O)Nc4ccc(F)c(Cl)c4)C3)c2)no1` (stereo not given): 1010 s.
Molecule `CCOc1ccccc1NC(=O)Cn1nc2n(c1=O)CCCC2` yielded an RP-LC retention time of 655 s.
The same measure for `CC1CCc2nc3ncn(CC(=O)Nc4cccc(C#N)c4)c(=O)c3cc2C1` (stereo not given): 738 s; for `O=C(NCc1ccco1)c1ccc(Cn2nc(N3CCN(c4ccc(F)cc4)CC3)ccc2=O)o1`: 820 s; for `COc1ccc(OCC(=O)N2CCN(c3cc(C(C)C)n4cnnc4n3)CC2)cc1`: 619 s.
Then `COc1ccc(OC)c(NS(=O)(=O)c2cccs2)c1`, with 777 s.
Then `CCCN1C(=O)COc2cc(-c3noc(C(=O)N4CCCC4)n3)ccc21`, with 885 s; and `CCN1c2ccccc2C(=O)NC12CCN(C(=O)Nc1ccc3c(c1)OCCO3)CC2`, with 737 s; and `COc1cc(C(=O)Nc2nc(-c3ccc(C)cc3)c(C)s2)c(Br)c(OC)c1OC`, with 1190 s.
The molecule `Cc1ccc(C(=O)N2CCN(c3nnc4ccccn34)CC2)cc1C` came in with an RP-LC retention time of 676 s.
Then `Cc1cc(C2CCCN2C(=O)CCc2ccccc2)no1` (stereo not given), with 760 s.
In turn, `O=C1CC2OCC=C3CN4CC[C@]56c7ccccc7N1C5[C@H]2[C@H]3C[C@H]46` (stereo not given in full) displayed an RP-LC retention time of 583 s.
Then `CN(C)[C@@H]1CN(C(=O)CCc2nc3ccc(Cl)cc3[nH]2)C[C@H]1CO`, with 529 s; and `O=C(CSc1nc(-c2ccccc2)c(-c2ccccc2)o1)NCCCO`, with 760 s; and `COC(=O)c1c(NCc2cc(F)cc(F)c2)c2cccc(Cl)c2[nH]c1=O`, with 808 s.
Molecule `CN(C)C(=O)N1CC(c2noc(-c3cccnc3)n2)C2(CCOCC2)C1` (stereo not given) returned an RP-LC retention time of 634 s.
As for `COC(=O)CCc1sc(NC2CCCCC2)nc1-c1ccc(OC)cc1`, the RP-LC retention time came out at 856 s.
`CCN(CC)CCNC(=O)C1c2ccccc2C(=O)N(C)C1c1cccs1` (stereo not given) showed an RP-LC retention time of 611 s.
The molecule `CC(C)CN1Cc2ccccc2-n2ccnc2C12CCN(C(=O)c1ccco1)CC2` displayed an RP-LC retention time of 654 s.
On to `Cc1ccc(NC(=O)C2CCN(S(=O)(=O)c3ccc4c(c3)sc(=O)n4C(C)C)CC2)nc1`, for which the RP-LC retention time was found to be 794 s.
`CCn1ccc2sc(C)c(C(=O)N3CCC(N4CCCCC4)CC3)c2c1=O` registered an RP-LC retention time of 566 s.
For the molecule `O=c1cc(-c2ccccc2)nc2n1CCN2Cc1ccccn1`, the RP-LC retention time is 658 s.
As to `COc1ccc(-c2cc(=O)c3cc(Br)ccc3o2)cc1OC`, the RP-LC retention time amounted to 912 s.
`CC(Cc1ccco1)NC(=O)CCCn1c(=O)c2cccn2c2ccc(Br)cc21` (stereo not given): the RP-LC retention time is 924 s.
The molecule `CCOC(=O)c1noc2nc(C)nc(NCCc3ccc(Cl)cc3)c12` registered an RP-LC retention time of 1210 s.
For the molecule `O=C(CN1C(=O)CCSc2ccccc21)NCCCN1CCN(Cc2ccccc2)CC1`, the RP-LC retention time is 614 s.
In turn, `COC(=O)C1=CN(CC(=O)N2CCN(c3ccccc3F)CC2)S(=O)(=O)N=C1C` came in with an RP-LC retention time of 908 s.
`CC1(O)CCOC2(CCN(Cc3ccccc3OC(F)(F)F)CC2)C1` (stereo not given): the RP-LC retention time was determined as 632 s.
Then `O=C(O)c1cn(-c2ccc(F)c(F)c2)nn1`, with 664 s; and `CC(NC(=O)C1CCCN(c2nccnc2Sc2ccccc2)C1)c1ccccc1` (stereo not given), with 1060 s; and `Cn1nc(-c2nc(C3CC3)no2)c2c1CCN(C(=O)Nc1ccccc1)C2`, with 809 s.

(Values after the METLIN SMRT retention time set (Domingo-Almenara et al. 2019).)
